Data taken from US12029728B2, “Small molecules with anti-protozoan activity” (New Mexico Tech University Research Park Corporation, priority 2018, dated 2024).

Key:
[1] = system: T. cruzi-infected ARPE cells; test: Treatment of T. cruzi-infected ARPE cells, imaging; assay type: cell-based, Trypanosoma cruzi; settings: for amastigotes in ARPE cultures: 5 days, EVOS imaging; for T. cruzi seen in EVOS image: day 12
Protocol: Four confocal dishes were prepared with 10,000 ARPE cells, which were adhered overnight at 37° C. The four dishes were ARPE control cells, non-infected but 5 μM Compound 2-treated cells, non-treated but infected cells, and infected cells treated with 5 μM Compound 2. For the infected dishes, ARPE media was removed and replaced with 2 mL of infectious amastigotes and trypomastigotes from the ARPE passaged plate. The dishes were then incubated for 2 hours at 37° C. The treated dishes were incubated with 5 μM Compound 2 for 5 days at 37° C., while untreated dishes were incubated in fresh media without Compound 2 for 5 days at 37° C. After the 5-day period, cells were washed 3 times in ARPE media and fixed with 1 mL 4% paraformaldehyde. Cells were visualized using an EVOS cell imaging system. Amastigotes appeared as small, dense, and mostly birefringent in images.
The experiment above was repeated using 1 μM Compound 2.
Four confocal dishes with 10,000 ARPE cells were prepared and adhered overnight at 37° C. The four dishes were: 1) ARPE control cells; 2) non-infected cells treated with 1 μM Compound 2; 3) untreated infected cells; and 4) T. cruzi-infected cells treated with 1 μM Compound 2. For the infected dishes, ARPE media was removed and replaced with 2 mL of infectious amastigotes and trypomastigotes expressing tdTomato (from ARPE passaged plate). The dishes were then incubated overnight for 7 days at 37° C. The untreated dishes were incubated in fresh media without Compound 2 for 7 days at 37° C. After the 7-day incubation period, cells were washed 3 times in ARPE media and fixed with 1 mL 4% paraformaldehyde. tdTomato fluorescence, which is indicative of viable T. cruzi, was then observed via fluorescence microscopy.
ARPE cells were plated in confocal dishes (20,000 cells per dish) and incubated overnight at 37° C. Cells were infected with T. cruzi by incubating cells with T. cruzi amastigotes and trypomastigotes expressing tdTomato (˜2×10^5 cells in total) for 24 hours at 37° C. Uninfected cells served as controls. Following the T. cruzi incubation period, extracellular parasites were removed, and the medium was replaced with DMEM/F12 culture media with or without 1 μM Compound 2. The cells were incubated further for 24 hours at 37° C. Cells were then treated two more times with fresh DMEM/F12 culture media with or without 1 μM Compound 2 and incubated for 24 hours at 37° C. Following fixation of cells in 4% paraformaldehyde, plates were imaged for tdTomato fluorescence, which is indicative of viable T. cruzi, such that the effects of repeated Compound 2 treatment could be compared to a single treatment with Compound 2.
ARPE cells were plated in confocal dishes (20,000 cells per dish) and incubated overnight at 37° C. Cells were infected with T. cruzi by incubating cells with T. cruzi amastigotes and trypomastigotes expressing tdTomato (˜2×10^5 cells in total) for 24 hours at 37° C. before washing dishes three times with DMEM/F12 culture media. Uninfected plates served as controls. The dishes were then treated with 2 μM Compound 2 or left untreated as a control and incubated further for 5 days at 37° C. The treated dish received a single treatment of Compound 2 on day 1. Dishes were washed twice with DMEM/F12 media and fixed in 4% paraformaldehyde before being imaged using confocal microscopy. […] The other Compound 2 dishes that were not incubated with T. cruzi a second time were used as controls. Following fixation of cells in 4% paraformaldehyde, tdTomato fluorescence of the cells was assessed using confocal microscopy.
ARPE cells were plated in confocal dishes (20,000 cells per dish) and incubated overnight at 37° C. Dishes were incubated with T. cruzi amastigotes and trypomastigotes expressing tdTomato (˜2×10^5 cells) for 48 hours at 37° C. Untreated cells served as controls. Cells were then washed 3 times with cell medium, treated with 5 μM Compound 2 or left untreated as a control and incubated further for 2 days at 37° C. […]

ARPE cells = test: MTT cell survival assay, ARPE; assay type: cell-based; settings: Homo sapiens, 48 hours at 37° C., read-out: IC50 (GI50), cell survival
Protocol: The GI50 (IC50), the concentration at which 50% cell survival is seen upon treatment with a compound, was determined for Compound 2 in Jurkat, U87, HeLa, and ARPE cells. Cells were cultured in 96-well plates and incubated with 50 μM, 25 μM, 12.5 μM, 6 μM, 3 μM, 1.5 μM, or 0 μM of Compound 2 for 48 hours at 37° C. Following the incubation period, a 3-(4,5-dimethylthiazol-2-yl)-2,5-diphenyl tetrazolium bromide (MTT) assay was performed. In brief, a 10% volume of MTT was added to each well. Cells were incubated with MTT for 2 hours, at which time cell supernatant was removed and cells were taken into 100 μL DMSO. The absorbance of cell solutions was then read at 595 nm. A decrease in absorbance indicated a decrease in cell survival.

[2] = system: T. cruzi-infected THP-1 cells; test: T. cruzi-infected THP-1 derived macrophages, confocal microscopy; assay type: cell-based, Trypanosoma cruzi; settings: 2 μM, 7 days
Protocol: Macrophages derived by differentiation of THP-1 cells with phorbol myristate acetate were plated in confocal dishes (about 5,000 cells per dish) and incubated overnight at 37° C. Dishes were incubated with T. cruzi amastigotes and trypomastigotes expressing tdTomato (˜2×10^5 cells) for 24 hours at 37° C. Uninfected plates served as controls. After the 24-hour T. cruzi incubation period, parasites were removed, and medium was re-plated with DMEM/F12 culture media with 2 μM Compound 2 (or left untreated as a control) for 7 days at 37° C. Following fixation of cells in 4% paraformaldehyde, tdTomato fluorescence (which is indicative of viable T. cruzi) in cells was then assessed via confocal microscopy.

[3] = system: L. major-infected PBMC cells; test: L. major-infected PBMC cells, Hoechst micrographs; assay type: cell-based, Leishmania major; settings: 40 μM
Protocol: Human peripheral blood mononuclear cells (PBMC) were plated onto polylysine-coated glass slides in 24-well plates and allowed to differentiate towards monocyte-derived macrophages (MDMs). Non-adherent cells were removed 48-hours post plating. Adherent monocytes were left to further differentiate for another 48 hours to MDMs. Following the completion of the differentiation period, MDMs were treated with vehicle control (DMSO), […], […], Compound 4, Compound 6, Compound 7, Compound 8, Compound 9, Compound 10, […]

L. major promastigotes = test: L. major promastigote viability, propidium iodide flow cytometry; assay type: cell-based, Leishmania major; settings: 50 μM, 48 hours at 24° C.
Protocol: 5×10^5 L. major promastigotes were treated with vehicle control (DMSO), […], 5 μM Compound 5, 50 μM Compound 2, 50 μM Compound 5, or […] for 48 hours at 24° C. Promastigote viability was then assessed via a propidium iodide flow cytometry assay. Propidium iodide is only taken up by dead cells, and the presence of fluorescence in a promastigote sample reflects compound efficacy.

`O=C(NO)C(c1ccccc1)c1c(-c2ccc3ccccc3c2)[nH]c2ccccc12` (centres unmarked) [Compound 2, N-hydroxy-2-(2-(naphthalen-2-yl)-1H-indol-3-yl)-2-phenylacetamide] was tested, and the “amastigotes in ARPE cultures” value ([1]; 1 μM) was “absent”, the “intracellular T. cruzi parasites” value ([1]; 1 μM, 7 days, tdTomato fluorescence) was “eradicated” and the “eradication of intracellular T. cruzi and reinfection” value ([1]; 2 μM, second incubation with T. cruzi) was “eradicated intracellular T. cruzi and protected cells from reinfection”. For the same compound, the “T. cruzi in ARPE cells (CherryTomato fluorescence)” value ([1]; 2 μM, two days) was “eradicated T. cruzi”, the “T. cruzi seen in EVOS image” value ([1]; 5 μM for 2 days) was “Small amounts of T. cruzi dots were observed” and the intracellular parasites ([1]; 5 μM, 2 days, after 48 hours infection) was “killed intracellular parasites”. The “amastigotes in ARPE cultures” value ([1]; 5 μM) was “absent”, the “T. cruzi seen in EVOS image” value ([1]; 10 μM for 2 days) was “could not be seen” and the “state of infected ARPE cells after treatment” value ([1]; 4 treatments with 2 μM over 4 days) was “cured”. For the same compound, the “T. cruzi-infected cell foci in fluorescence images” value ([1]; 5 (μM) for 2 days, day 17) was “Only two T. cruzi-infected cell foci were found”, the tdTomato fluorescence ([1]; 10 (μM) for 2 days, day 17) was “no tdTomato fluorescence was observed” and the “long term treatment efficacy against T. cruzi infection” value ([1]; daily 2 μM for 5 days, then 5 days without treatment) was “long-term full cure”. The parasite death ([1]; one treatment with 2 μM, 5-day incubation) was “full parasite death”, the “T. cruzi infection after treatment” value ([1]; repeated treatment (three times) with 1 μM, every 24 hours) was “eradicated the T. cruzi infection” and the “intracellular T. cruzi and re-infection” value ([1]; single dose of 2 μM, 2 days) was “killed intracellular T. cruzi and protected the cells from re-infection”. The “T. cruzi infection after treatment” value ([1]; single treatment with 1 μM) was “only a small portion of the T. cruzi infection remaining”, the IC50 (ARPE cells) was 14.8 ± 1.13 µM and the “intracellular proliferation of T. cruzi” value [2] was “prevented intracellular proliferation of T. cruzi”. The “number of parasites/PBMC cell” value [3] was “decreases the number of parasites/PBMC cell” and the “efficacy on L. major promastigote survival” value (L. major promastigotes) was “higher efficacy than MTF or the vehicle control”.
